Values joined by “and” are separate entries in the source; they are usually repeats but may differ in a detail not shown here. Equal entries are not always repeated.
Tests used:
[1] = system: normal human dermal fibroblasts (NHDFs); experiment: WST-1 cell proliferation assay; assay type: cell-based; conditions: 48 h
Procedure: Normal human dermal fibroblasts (NHDFs) from a 37- and […] were obtained commercially from Cambrex (Walkerville, United States) and Coriell (New Jersey, United States). The NHDFs were cultured in phenol red-free Dulbecco’s modified Eagle’s medium (DMEM; Thermo Fisher Scientific, Waltham, Massachusetts, United States) supplemented with 10% (v/v) FCS, 4 mM L-glutamine and 100,000 U/L penicillin, 100 mg/L Streptomycin, 0.25 mg/L amphotericin B (PAN Biotech, Aidenbach, Germany) at 37 °C, 5% CO2. The medium was changed twice a week until the cells reached 80% confluency. The NHDFs were subcultured with an expansion ratio of 1:3 using 0.05% trypsin (PAN Biotech, Aidenbach, Germany) and used until the ninth passage.
The tetrazolium salt WST-1 (Roche, Basel, Swiss) was used for the spectrophotometric quantification of cell proliferation in response to various inhibitor concentrations. The cell proliferation assay was carried out according to the manufacturer’s instructions in a 96-well tissue culture plate with 1700 cells per cavity. Based on the inhibition studies, the cells were cultured in fully supplemented DMEM for 24 h then treated with celastrol or amphotericin B for an additional 48 h. The WST-1 reagent was added to the cell culture supernatant 4 h before the end of the treatment. The absorptions at 440 and 590 nm were measured at timepoints 0, 1, 2, 3 and 4 h after the addition of WST-1.

TGFB1 mRNA expression = TGFB1 mRNA expression in NHDFs by qRT-PCR; assay type: cell-based, human; conditions: 2 μM in the presence of TGF-β1 (5 μg/L), 48 h
Procedure: (§1) A former established cell culture model was utilized to investigate the effect of putative XT-I inhibitors on NHDFs. The inhibition studies were carried out with final inhibitor concentrations of 0.5, 1.0, 2.0 or 4.0 μM diluted in fully supplemented DMEM. In brief, unless otherwise stated, NHDFs were cultivated with a low density of 50 cells per mm^2 on a hard tissue culture substrate (100 × 20 mm dish) in fully supplemented DMEM with or without additional TGF-β1 (5 μg/L) for 24 h, promoting their transdifferentiation into proto-myofibroblasts. Thereafter, cells were treated with celastrol or amphotericin B in the presence or absence of TGF-β1 (5 μg/L) for an additional 48 h. Negative controls treated with solvent only were included for every sampling time. The final DMSO content of 0.04% (v/v) was kept constant in all inhibition experiments.
(§2) The RNA extraction from cell lysates and cDNA synthesis for mRNA and miRNA expression analysis were performed as described previously.
(§3) Quantitative real-time polymerase chain reaction (qRT-PCR) analysis using a LightCycler 480 Instrument II system (Roche, Basel, Swiss) was performed as previously described. […] The geometric mean of the expression levels of the housekeeping genes SDHA, RPL13A and B2M were calculated for expression normalization. The relative target gene mRNA expressions were determined by the ΔΔCT method considering the PCR efficiency. […]

SMAD7 mRNA expression = SMAD7 mRNA expression in NHDFs by qRT-PCR; assay type: cell-based, human; conditions: 2 μM in the presence of TGF-β1 (5 μg/L), 48 h
Procedure: as §1, with “experiments. […]” for “experiments.”
as §3

COL1A1 mRNA expression = COL1A1 mRNA expression in NHDFs by qRT-PCR; assay type: cell-based, human; conditions: 48 h
Procedure: as §1, §2, §3

fibroblasts = conditions: in vitro, osteoblasts and fibroblasts; cited from earlier work

Structure (SMILES): C[C@@H]1[C@H](O)[C@@H](C)/C=C/C=C/C=C/C=C/C=C/C=C/C=C/[C@H](O[C@@H]2O[C@H](C)[C@@H](O)[C@H](N)[C@@H]2O)C[C@@H]2O[C@](O)(C[C@@H](O)C[C@@H](O)[C@H](O)CC[C@@H](O)C[C@@H](O)CC(=O)O[C@H]1C)C[C@H](O)[C@H]2C(=O)O [Compound 17, Amphotericin B]
- cell proliferation (WST-1) compared to control ([1]; 4.0 μM): reduced the proliferation of NHDFs significantly
- cell proliferation (WST-1) compared to control ([1]; 0.5 to 2.0 μM): did not influence cellular proliferation
- TGFB1 mRNA expression relative to TGF-β1 only (TGFB1 mRNA expression): 0.8 ± 0.04 fold
- SMAD7 mRNA expression relative to TGF-β1 only (SMAD7 mRNA expression): 1.3 ± 0.1 fold
- TGF-β1-mediated COL1A1 mRNA expression relative to TGF-β1 only (COL1A1 mRNA expression; 2.0 μM with TGF-β1 (5 μg/L)): 0.8 ± 0.06 fold
- COL1A1 mRNA expression compared to controls treated with DMSO (COL1A1 mRNA expression; amphotericin B treatment, not statistically significant (p = 0.2)): 0.7 ± 0.1 fold
- concentration causing sublethal cytotoxicity (fibroblasts): 5000 ng/mL and 10000 ng/mL
- concentration lethal to fibroblasts (fibroblasts): 100000 ng/mL

Structure (SMILES): CC1=C(O)C(=O)C=C2C1=CC=C1[C@@]2(C)CC[C@@]2(C)[C@@H]3C[C@](C)(C(=O)O)CC[C@]3(C)CC[C@]12C [Compound 68, Celastrol]
- cell proliferation (WST-1) compared to control ([1]; 2.0 μM): significantly decreased cell proliferation
- cell proliferation (WST-1) compared to control ([1]; 4.0 μM): significantly decreased cell proliferation
- cell proliferation (WST-1) compared to control ([1]; 0.5 and 1.0 μM): did not influence cellular proliferation
